Reference: patent US6767718B2, “Lipodepsipeptide antibiotics and methods of preparation” (BioSource Pharm, Inc., priority 2002, dated 2004)
Numbered stars: 1 amine (or outer) side, 2 acyl side, 3 side chain; on linkers, the order of the positions; unused ones are H or OH. Bridge positions count the residues as written; N and C are the ends. Square brackets hold non-standard residues; d marks the D form. Peptide text beside a SMILES is read from it. * marks the point of attachment. X1 = CC(CC(=O)O)C(N[*:1])C(=O)[*:2]; Kyn = Nc1ccccc1C(=O)C[CH](N)C(=O)O; NH(CH2)11CH3 = CCCCCCCCCCCCN*; Orn = NCCC[CH](N)C(=O)O; CO = O=C([*:1])[*:2]

Columns and labels:
[1] = system: Staphlococcus aureus strain Smith; assay: MIC by serial twofold broth dilution in Mueller Hinton broth without and with 4 mmolar CaCl2; assay type: cell-based, Staphylococcus aureus; details: for MIC vs. S. aureus w Ca++ / MIC vs. S. aureus wo Ca++: S. aureus strain Smith; for MIC vs. S. aureus w Ca++: Mueller Hinton broth with 4 mmolar CaCl2; for MIC vs. S. aureus wo Ca++: Mueller Hinton broth without CaCl2
[2] = system: gram positive bacteria including methicillin-resistant Staphylococcus aureus (MRSA) and vancomycin-resistant enterococci (VRE); details: including MRSA and VRE strains; cited from earlier work

CH3(CH2)8CO-D-Harm-Asn-Asp-cdpeptide [Compound 14]
MIC vs. S. aureus w Ca++ [1]: >10 | MIC vs. S. aureus wo Ca++ [1]: >10

CH3(CH2)9SO2-L-Phe-Asn-Asp-FMOC-cdpeptide [Compound 8]
MIC vs. S. aureus w Ca++ [1]: 5.0 | MIC vs. S. aureus wo Ca++ [1]: >20

CH3(CH2)8CO-L-Harm-Asn-Asp-cdpeptide [Compound 13]
MIC vs. S. aureus w Ca++ [1]: 5.0 | MIC vs. S. aureus wo Ca++ [1]: >10

CCCCCCCCCC(=O)NC(Cc1cccc2ccccc12)C(=O)NC(CC(N)=O)C(=O)NC(CC(=O)O)C(=O)NC1C(=O)NCC(=O)NC(CCCN)C(=O)NC(CC(=O)O)C(=O)NC(C)C(=O)NC(CC(=O)O)C(=O)NCC(=O)NC(CO)C(=O)NC(C(C)CC(=O)O)C(=O)NC(CC(=O)c2ccccc2N)C(=O)OC1C [Compound 11, N-Decanoyl-L-β-(1-naphthyl)alanyl-cyclodepsipeptide-2]
MIC vs. S. aureus w Ca++ [1]: 0.16 | MIC vs. S. aureus wo Ca++ [1]: 2.5

CCCCCCCCCCCCNC(=O)NC(CC(=O)O)C(=O)NC1C(=O)NCC(=O)NC(CCCN)C(=O)NC(CC(=O)O)C(=O)NC(C)C(=O)NC(CC(=O)O)C(=O)NCC(=O)NC(CO)C(=O)NC(C(C)CC(=O)O)C(=O)NC(CC(=O)c2ccccc2N)C(=O)OC1C (centres unmarked) [Compound 1, N-Dodecylcarbamoyl-cyclodepsipeptide-1] ({NH(CH2)11CH3-CO}-DTG[Orn]DADGS[X1][Kyn]; ester 2-C; configuration not given here)
MIC vs. S. aureus w Ca++ [1]: 10.0 | MIC vs. S. aureus wo Ca++ [1]: >20 | Antibacterial activity (in words) ([1]; carbamoyl-linked compounds, Table 2): good antibacterial activity

CH3(CH2)8CO-Asn-Asp-cdpeptide [Compound 4]
MIC vs. S. aureus w Ca++ [1]: >10 | MIC vs. S. aureus wo Ca++ [1]: >20

CH3(CH2)11NHCO-Asn-Asp-FMOC-cdpeptide [Compound 2]
MIC vs. S. aureus w Ca++ [1]: 5.0 | MIC vs. S. aureus wo Ca++ [1]: >20

CH3(CH2)8CO-Trp-Asn-Asp-cdpeptide [daptomycin, reference compound]
MIC vs. S. aureus w Ca++ [1]: 0.16 | MIC vs. S. aureus wo Ca++ [1]: 2.5 | Activity against gram positive bacteria (in words) [2]: excellent activity

CH3(CH2)8CO-Trp-Asn-Asp-tBOC-cdpeptide [tBOC daptomycin, reference compound]
MIC vs. S. aureus w Ca++ [1]: 0.6 | MIC vs. S. aureus wo Ca++ [1]: >2.5
